# In patent US12344610B2, “APOL1 inhibitors and methods of use” (Maze Therapeutics, Inc., priority 2022, dated 2025):
# Target: T1, APOL1 G2 (Homo sapiens, UniProt O14791, DEL388-389)
# T1 construct: expressed in transfected cells; host or cells: HEK293 T-REx clonal line stably expressing GCaMP6f (HEK T-REx/GCaMP6f/APOL1 G2 K6.3), doxycycline induced
# T1 sequence (O14791 with tags, fused parts or gaps DEL388-389): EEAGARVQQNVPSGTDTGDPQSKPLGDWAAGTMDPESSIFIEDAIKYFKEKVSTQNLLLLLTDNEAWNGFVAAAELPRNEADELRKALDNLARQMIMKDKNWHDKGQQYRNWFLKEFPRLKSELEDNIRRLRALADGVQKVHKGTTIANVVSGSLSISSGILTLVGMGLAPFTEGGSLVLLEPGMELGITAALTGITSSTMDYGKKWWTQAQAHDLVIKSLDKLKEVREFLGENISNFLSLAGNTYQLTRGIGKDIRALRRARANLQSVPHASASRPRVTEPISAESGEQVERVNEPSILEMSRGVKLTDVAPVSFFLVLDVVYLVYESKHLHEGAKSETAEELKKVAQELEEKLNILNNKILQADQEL
# Experiment: APOL1-mediated calcium transport (calcium influx) assay, HEK T-REx/GCaMP6f/APOL1 G2 K6.3 cells, FLIPR TETRA
# Format: cell-based
# Settings: prevention of calcium influx; geometric mean of at least 2 assay runs; † = average of a technical replicate from a single assay run
# In short: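 A HEK293 T-REx clone stably expressing GCaMP6f had APOL1 G2 induced with doxycycline (20 ng/mL solution added) for 6 h. Cells were then washed into Ca2+-free Tyrode's buffer (pH 7.4) and preincubated with compounds (duplicate 8-point) for 10 min at room temperature. Ca2+ injection to 5 mM final produced FLIPR GCaMP fluorescence, giving AC50 for influx inhibition (geometric mean, ≥2 runs).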
row,Compound,AC50
1,"NC1CN(C(=O)c2ccc(OCCN3CCC4(CC3)C(=O)Nc3ccc(Cl)cc34)cc2F)C1 [Compound 236, 1′-{2-[4-(3-aminoazetidine-1-carbonyl)-3-fluorophenoxy]ethyl}-5-chloro-1,2-dihydrospiro[indole-3,4′-piperidin]-2-one]",634 nM
2,"CN1C(=O)C2(CCN(CCOc3ccc(S(=O)(=O)CCCS(C)(=O)=O)cc3)CC2)c2cc(Cl)ccc21 [Compound 23, 5-chloro-1′-{2-[4-(3-methanesulfonylpropanesulfonyl)phenoxy]ethyl}-1-methyl-1,2-dihydrospiro[indole-3,4′-piperidin]-2-one]",514 nM
3,"C[C@]1(O)C[C@@H](N2C(=O)CCc3cc(OCCN4CCC5(CC4)C(=O)Nc4ccc(Cl)cc45)cnc32)C1 [Compound 275, 5-chloro-1′-[2-({7-oxo-8-[(cis)-3-hydroxy-3-methylcyclobutyl]-5,6,7,8-tetrahydro-1,8-naphthyridin-3-yl}oxy)ethyl]-1,2-dihydrospiro[indole-3,4′-piperidin]-2-one]",640 nM
4,"O=C(c1c(F)cc(OCCN2CCC3(CC2)C(=O)Nc2ccc(Cl)cc23)cc1F)N1CCS(=O)(=O)CC1 [Compound 259, 4-[4-(2-{5-chloro-2-oxo-1,2-dihydrospiro[indole-3,4′-piperidin]-1′-yl}ethoxy)-2,6-difluorobenzoyl]-1λ^6-thiomorpholine-1,1-dione]",651 nM
5,"C[C@@H](COc1ccc(S(C)(=O)=O)c(C(F)F)c1)N1CCC2(CC1)C(=O)Nc1ccc(Cl)cc12 (single isomer, unassigned) [Compound 210]",1540 nM
6,"C[C@]1(O)C[C@@H](N2C(=O)CCc3cc(OCCN4CCC5(CC4)C(=O)Nc4ccc(C(F)F)cc45)cnc32)C1 [Compound 274, 5-(difluoromethyl)-1′-[2-({7-oxo-8-[(cis)-3-hydroxy-3-methylcyclobutyl]-5,6,7,8-tetrahydro-1,8-naphthyridin-3-yl}oxy)ethyl]-1,2-dihydrospiro[indole-3,4′-piperidin]-2-one]",722 nM
7,"CS(=O)(=O)c1ccc(OCCN2CCC3(CC2)C(=O)N(CCO)c2ccc(C#N)cc23)cc1C(F)F [Compound 266, 1′-{2-[3-(difluoromethyl)-4-methanesulfonylphenoxy]ethyl}-1-(2-hydroxyethyl)-2-oxo-1,2-dihydrospiro[indole-3,4′-piperidine]-5-carbonitrile]",862 nM
8,"O=C1Nc2ccc(Cl)cc2C12CCN(CCOc1ccc(S(=O)(=O)C3(CO)CC3)cc1)CC2 [Compound 225, 5-chloro-1′-[2-(4-{[1-(hydroxymethyl)cyclopropyl]sulfonyl}phenoxy)ethyl]-1,2-dihydrospiro[indole-3,4′-piperidin]-2-one]",847 nM
9,"CS(=O)(=O)C1CN(C(=O)c2ccc(OCCN3CCC4(CC3)C(=O)Nc3ccc(Cl)cc34)cc2F)C1 [Compound 233, 5-chloro-1′-{2-[3-fluoro-4-(3-methanesulfonyl-azetidine-1-carbonyl)phenoxy]ethyl}-1,2-dihydrospiro[indole-3,4′-piperidin]-2-one]",1160 nM
10,"CS(=O)(=O)NC1CN(C(=O)c2ccc(OCCN3CCC4(CC3)C(=O)Nc3ccc(Cl)cc34)cc2F)C1 [Compound 237, N-{1-[4-(2-{5-chloro-2-oxo-1,2-dihydrospiro[indole-3,4′-piperidin]-1′-yl}ethoxy)-2-fluorobenzoyl]azetidin-3-yl} methanesulfonamide]",3310 nM
11,"O=C1Nc2ccc(Cl)cc2C12CCN(CCOc1ccc(S(=O)(=O)[C@H]3C[C@H](O)C3)cc1)CC2 [Compound 215, 5-chloro-1′-[2-(4-{[(trans)-3-hydroxycyclobutyl]sulfonyl}phenoxy)ethyl]-1,2-dihydrospiro[indole-3,4′-piperidin]-2-one]",1130 nM
12,"CS(=O)(=O)C1(c2ncc(OCCN3CCC4(CC3)C(=O)Nc3ccc(C#N)cc34)cc2F)CC1 [Compound 283, 1′-(2-{[5-fluoro-6-(1-methanesulfonylcyclopropyl)pyridin-3-yl]oxy}ethyl)-2-oxo-1,2-dihydrospiro[indole-3,4′-piperidine]-5-carbonitrile]",2000 nM
13,"O=C1CCc2cc(OCCN3CCC4(CC3)C(=O)Nc3ccc(Cl)cc34)ccc2N1[C@H]1C[C@H](O)C1 [Compound 224, 5-chloro-1′-[2-({2-oxo-1-[(trans)-3-hydroxycyclobutyl]-1,2,3,4-tetrahydroquinolin-6-yl}oxy)ethyl]-1,2-dihydrospiro[indole-3,4′-piperidin]-2-one]",830 nM
